Assay results reported in patent US6392045B1, “9-azobicyclo[3.3.1] non-2-ene derivatives as cholinergic ligands at nicotinic ACH receptors” (NeuroSearch A/S, priority 1997, dated 2002).
Like-named read-outs stand apart in the source and are kept apart here.

Key:
[1] = approximate potency, times that of morphine; cited from earlier work
[2] = molecular target: T1, α4β2 subtype of nicotinic receptors (neuronal nicotinic receptors) (Rattus norvegicus, UniProt P09483+P12390); assay: In vitro inhibition of 3H-epibatidin binding
T1 construct: The forebrain (÷cerebellum) from a male Wistar rat (150-250 g) is homogenized; from tissue; host or cells: rat forebrain (without cerebellum) homogenate (male Wistar)
T1 sequence (P09483 31-630): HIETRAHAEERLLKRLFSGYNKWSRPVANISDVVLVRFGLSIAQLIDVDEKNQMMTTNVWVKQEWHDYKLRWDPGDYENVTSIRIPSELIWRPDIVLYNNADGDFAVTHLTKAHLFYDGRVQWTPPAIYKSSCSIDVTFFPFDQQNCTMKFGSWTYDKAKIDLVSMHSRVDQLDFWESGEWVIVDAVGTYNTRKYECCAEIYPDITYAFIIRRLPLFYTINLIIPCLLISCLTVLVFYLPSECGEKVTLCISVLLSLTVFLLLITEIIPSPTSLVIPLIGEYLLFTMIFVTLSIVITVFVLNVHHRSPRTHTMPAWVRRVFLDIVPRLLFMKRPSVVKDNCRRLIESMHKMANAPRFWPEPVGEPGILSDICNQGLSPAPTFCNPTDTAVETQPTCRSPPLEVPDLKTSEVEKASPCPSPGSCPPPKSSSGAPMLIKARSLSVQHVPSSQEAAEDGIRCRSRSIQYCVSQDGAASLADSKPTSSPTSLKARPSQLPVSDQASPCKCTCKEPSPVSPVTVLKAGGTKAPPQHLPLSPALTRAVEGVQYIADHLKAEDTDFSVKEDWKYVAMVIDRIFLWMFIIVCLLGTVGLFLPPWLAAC
T1 sequence (P12390 25-500): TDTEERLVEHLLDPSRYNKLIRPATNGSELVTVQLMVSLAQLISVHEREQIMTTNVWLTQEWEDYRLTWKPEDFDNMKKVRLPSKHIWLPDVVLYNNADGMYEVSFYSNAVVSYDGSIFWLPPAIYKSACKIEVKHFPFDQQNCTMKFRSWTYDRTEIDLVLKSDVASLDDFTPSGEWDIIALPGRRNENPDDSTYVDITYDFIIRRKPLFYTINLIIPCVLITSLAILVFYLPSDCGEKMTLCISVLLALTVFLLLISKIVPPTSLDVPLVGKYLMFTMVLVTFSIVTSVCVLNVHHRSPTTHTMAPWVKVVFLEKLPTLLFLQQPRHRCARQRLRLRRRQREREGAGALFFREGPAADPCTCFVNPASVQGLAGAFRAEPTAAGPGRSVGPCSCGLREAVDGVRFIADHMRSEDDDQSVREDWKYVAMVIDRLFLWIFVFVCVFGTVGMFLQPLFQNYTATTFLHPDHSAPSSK
Description: In Vitro Inhibition of ^3H-epibatidin Binding
The high affinity binding site for ^3H-epibatidin is most certainly binding to the α4β2 subtype of nicotinic receptors. The identity of the low affinity site is still unknown; does it represent a second nicotinic receptor or a second site in the same receptor.
Tissue preparation: Preparations are performed at 0-4° C. unless otherwise indicated. The forebrain (÷cerebellum) from a male Wistar rat (150-250 g) is homogenized for 10-20 sec in 20 ml Tris, HCl (50 mM, pH 7.4) using an Ultra-Turrax homogenizer. The tissue suspension is centrifuged at 27,000×g for 10 min. The supernatant is discarded and the pellet is washed three times by centrifugation at 27,000×g for 10 min in 20 ml fresh buffer, and the final pellet is resuspended in fresh buffer (400 ml per g of original tissue) and used for binding assays.
Assay: Aliquots of 2.0 ml homogenate are added to 0.100 ml of test solution and 0.100 ml of ^3H-epibatidin (0.3 nM, final concentration), mixed and incubated for 60 min at room temperature. Non-specific binding is determined using (−)-nicotine (30 μM, final concentration). After incubation the samples are poured directly onto Whatman GF/C glass fibre filters (presoaked in 0.1% PEI for at least 20 min) under suction and immediately washed with 2×5 ml ice-cold buffer. The amount of radioactivity on the filters is determined by conventional liquid scintillation counting. Specific binding is total binding minus non-specific binding.

[3] = molecular target: nAChR formed by the α7 subunit isoform (Rattus norvegicus, UniProt Q05941); assay: biochemical; type: binding
nAChR formed by the α7 subunit isoform, sequence (Q05941 23-502): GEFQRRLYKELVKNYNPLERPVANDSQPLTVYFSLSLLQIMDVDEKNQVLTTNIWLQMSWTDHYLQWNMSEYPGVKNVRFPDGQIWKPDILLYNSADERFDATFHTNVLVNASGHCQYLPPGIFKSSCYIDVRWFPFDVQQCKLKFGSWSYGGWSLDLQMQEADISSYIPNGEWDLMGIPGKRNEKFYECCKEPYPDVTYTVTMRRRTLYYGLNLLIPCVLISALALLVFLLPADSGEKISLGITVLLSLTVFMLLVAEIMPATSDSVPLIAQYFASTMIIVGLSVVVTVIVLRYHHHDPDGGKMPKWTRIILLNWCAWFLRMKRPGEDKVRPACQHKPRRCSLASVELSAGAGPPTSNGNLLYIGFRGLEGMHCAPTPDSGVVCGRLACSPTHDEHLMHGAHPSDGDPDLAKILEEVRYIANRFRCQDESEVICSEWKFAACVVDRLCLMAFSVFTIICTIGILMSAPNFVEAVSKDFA

[4] = molecular target: nAChRs comprised of α4 and β2 subunits (Rattus norvegicus, UniProt P09483+P12390); assay: In vitro inhibition of 3H-cytisine binding
nAChRs comprised of α4 and β2 subunits, sequence (P09483 31-630): as the sequence (P09483 31-630) above
nAChRs comprised of α4 and β2 subunits, sequence (P12390 25-500): as the sequence (P12390 25-500) above
Description: In Vitro Inhibition of ^3H-cytisine Binding
The predominant subtype with high affinity for nicotine is comprised of α4 and β2 subunits. nAChRs of the latter type can selectively be labelled by the nicotine agonist ^3H-cytisine.
Tissue Preparation: Preparations are performed at 0-4° C. unless otherwise indicated. […] The homogenate is centrifuged at 27,000×g for 10 min. The supernatant is discarded and the pellet is resuspended in fresh buffer and centrifuged a second time. The final pellet is resuspended in fresh buffer (35 ml per g of original tissue) and used for binding assays.
Assay: Aliquots of 500 μl homogenate are added to 25 μl of test solution and 25 μl of ^3H-cytisine (1 nM, final concentration), mixed and incubated for 90 min at 2° C. Non-specific binding is determined using (−)-nicotine (100 μM, final concentration). After incubation the samples are added 5 ml of ice-cold buffer and poured directly onto Whatman GF/C glass fibre filters under suction and immediately washed with 2×5 ml ice-cold buffer. The amount of radioactivity on the filters is determined by conventional liquid scintillation counting. Specific binding is total binding minus non-specific binding.

[5] = read-out: 3H-α-bungarotoxin IC50

SMILES	analgesic potency relative to morphine [1]	IC50 [2]	IC50 [3, 5]	melting point	IC50 [4]	IC50 ([2]; rat forebrain homogenate, 0.3 nM 3H-epibatidin, 60 min at room temperature, read-out: 3H-epibatidin IC50)	IC50 [3]	IC50 ([4]; rat cerebral cortex homogenate, 1 nM 3H-cytisine, 90 min at 2° C., read-out: 3H-cytisine IC50)
Clc1ccc(C2CC3CCC2N3)cn1 (stereo not shown) [Epibatidine]	~500 times	–	–	–	–	–	–	–
CC(=O)C1=CC2CCCC(C1)N2C.O=C(O)/C=C/C(=O)O (racemic) [Compound 2d, (±)-3-Acetyl-9-methyl-9-azabicyclo[3.3.1]non-2-ene Fumaric Acid Salt]	–	1100 nM	4200 nM	149 to 151 °C	590 nM	–	–	–
CN1C2C=C(c3ccoc3)CC1CCC2.O=C(O)/C=C/C(=O)O (racemic) [Compound 4c, (±)-3-(3-Furyl)-9-methyl-9-azabicyclo[3.3.1]non-2-ene Fumaric Acid Salt]	–	5000 nM	660 nM	167 to 174 °C	2000 nM	–	–	–
CN1C2C=C(c3cnc4ccccc4c3)CC1CCC2.O=C(O)/C=C/C(=O)O (racemic) [Compound 6b, (±)-3-(3-Quinolinyl)-9-methyl-9-azabicyclo[3.3.1]non-2-ene Fumaric Acid Salt]	–	–	–	195 to 197 °C	–	8300 nM	350 nM	1000 nM
